Measured values as given in paper PMC7932537, “Quantitative profiling of protease specificity” (PLoS Computational Biology, 2021).

Columns and labels:
MMP-2 = target: T1, MMP-2 (Homo sapiens, UniProt P08253); test: K(obs) of individual phage substrates (set of 1369); format: biochemical; conditions: MMP2
T1 sequence (P08253 110-660): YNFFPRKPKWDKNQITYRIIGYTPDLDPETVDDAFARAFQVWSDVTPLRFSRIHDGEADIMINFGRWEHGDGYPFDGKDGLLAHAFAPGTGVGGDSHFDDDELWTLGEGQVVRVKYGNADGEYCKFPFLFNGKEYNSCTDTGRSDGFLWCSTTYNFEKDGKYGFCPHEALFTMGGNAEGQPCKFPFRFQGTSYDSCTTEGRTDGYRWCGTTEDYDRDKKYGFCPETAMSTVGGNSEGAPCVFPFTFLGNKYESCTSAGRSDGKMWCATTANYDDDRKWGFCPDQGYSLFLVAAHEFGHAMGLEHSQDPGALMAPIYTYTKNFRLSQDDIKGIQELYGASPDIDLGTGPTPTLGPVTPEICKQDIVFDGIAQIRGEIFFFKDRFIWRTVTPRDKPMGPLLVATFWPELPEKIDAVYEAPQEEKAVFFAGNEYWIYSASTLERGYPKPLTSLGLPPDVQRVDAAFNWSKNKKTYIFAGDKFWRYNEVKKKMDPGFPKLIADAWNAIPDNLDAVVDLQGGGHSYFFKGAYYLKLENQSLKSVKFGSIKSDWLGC

MMP-9 = MMP-9 (Homo sapiens, UniProt P14780); test: as above; format: biochemical; conditions: MMP9, individual phage substrates, set of 1369 peptides
MMP-9, sequence (P14780 94-707): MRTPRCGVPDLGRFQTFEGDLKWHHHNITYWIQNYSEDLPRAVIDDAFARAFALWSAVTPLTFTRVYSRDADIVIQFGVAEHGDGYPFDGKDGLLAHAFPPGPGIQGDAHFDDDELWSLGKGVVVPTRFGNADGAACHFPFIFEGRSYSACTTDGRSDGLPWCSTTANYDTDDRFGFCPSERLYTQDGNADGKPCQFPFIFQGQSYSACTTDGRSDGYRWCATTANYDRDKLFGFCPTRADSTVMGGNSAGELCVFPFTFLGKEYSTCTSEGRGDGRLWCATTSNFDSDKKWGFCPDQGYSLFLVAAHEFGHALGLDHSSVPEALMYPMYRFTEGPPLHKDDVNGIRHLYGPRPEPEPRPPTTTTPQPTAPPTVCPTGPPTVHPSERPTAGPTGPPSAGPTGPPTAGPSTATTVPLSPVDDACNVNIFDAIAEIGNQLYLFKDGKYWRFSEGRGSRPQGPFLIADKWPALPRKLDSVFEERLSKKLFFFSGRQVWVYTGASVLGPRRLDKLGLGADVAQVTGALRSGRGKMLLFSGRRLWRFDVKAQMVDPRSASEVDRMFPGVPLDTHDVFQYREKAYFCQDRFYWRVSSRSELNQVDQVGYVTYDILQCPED

[1] = individual phage substrate from the set of 1369 peptides, cleavage position marked by the dash in the sequence
[2] = dash in sequence marks cleavage position
[3] = individual phage substrates, set of 1369 peptides, cleavage position marked by '-' in the sequence
[4] = '-' marks the cleavage position (P1-P1')

Substance | Kobs (MMP-2; [1]) [M⁻¹ s⁻¹] | Kobs (MMP-9; [2]) [M⁻¹ s⁻¹] | Kobs (MMP-2; [3]) [M⁻¹ s⁻¹] | Kobs (MMP-9; [4]) [M⁻¹ s⁻¹]
GGSGQ-LLATK | 619.843 | 0 |  | 
GHAHH-LYTAS | 171.876 | 201.585 |  | 
TVLRS-LTASG |  |  | 12792.1 | 3536.02
PYAEN-LTASG | 3253.29 | 551.253 |  | 
SGIYG-LRNTA |  |  | 1981.53 | 2157.02
GAPSS-LRTAS |  |  | 12792.1 | 12792.1
GSALA-LTTAS |  |  | 619.843 | 1196.62
SGVGM-LYNTA | 1373.05 | 0 |  | 
LPALN-MTASG |  |  | 1513.13 | 4335.13
SGVRA-LISTA |  |  | 12792.1 | 12792.1
RHMLG-LTASG | 1154.21 | 726.013 |  | 
GLAYS-LQTAS | 1561.44 | 2476.66 |  | 
EPIYN-LTASG |  |  | 619.843 | 2761.81
ESAQM-ITASG |  |  | 142.481 | 0
VWGRA-LTASG |  |  | 7386.83 | 8321.48
GAAWG-LNTAS | 201.585 | 836.403 |  | 
MDLLS-LTASG | 1327.88 | 0 |  | 
HVLQN-LTASG |  |  | 12792.1 | 201.585
YSALP-MTASG | 1561.44 | 3964.21 |  | 
SGALD-LKRTA | 0 | 0 |  | 
SGVRF-MRQTA | 231.616 | 1513.13 |  | 
ERIWA-LTASG | 1465.65 | 3344.37 |  | 
CCSLA-LTASG | 551.253 | 386.839 |  | 
RNLAS-LTASG |  |  | 7815.03 | 142.481
GVSAR-LVTAS | 142.481 | 0 |  | 
GFHRS-IRTAS | 292.668 | 0 |  | 

Substance | Kobs (MMP-2; [1]) [M⁻¹ s⁻¹] | Kobs (MMP-9; [2]) [M⁻¹ s⁻¹] | Kobs (MMP-2; [3]) [M⁻¹ s⁻¹] | Kobs (MMP-9; [4]) [M⁻¹ s⁻¹]
GQAWA-LGTAS |  |  | 484.315 | 355.093
AMAHS-LTASG | 7015.91 | 2996.69 |  | 
SGLLN-MYITA |  |  | 0 | 0
GGSGN-LIYWN |  |  | 231.616 | 142.481
GPMQR-LMTAS |  |  | 0 | 0
GKPNR-LVTAS | 2761.81 | 1239.69 |  | 
VSVDQ-LTASG | 0 | 0 |  | 
ELAWH-LTASG | 1981.53 | 1373.05 |  | 
VVAVS-LTASG |  |  | 12792.1 | 9740.44
WLYAH-YTASG | 1816.46 | 113.394 |  | 
SGLQN-LMLTA |  |  | 113.394 | 113.394
GSGNS-LKRRT | 142.481 | 0 |  | 
GRPMN-LRTAS |  |  | 10866.7 | 12792.1
GKVRN-LTTAS |  |  | 10866.7 | 8321.48
DLPHC-LTASG | 619.843 | 355.093 |  | 
EHNLP-LTASG |  |  | 799.117 | 0
ISPML-LTASG |  |  | 1196.62 | 12792.1
GTVRH-LSTAS |  |  | 6396.07 | 1925.41
ATASF-LTASG |  |  | 5889.62 | 27.918
GGSGA-LTMPL |  |  | 0 | 171.876
SGIES-MYVTA |  |  | 0 | 0
GTPSK-LYTAS | 6131.32 | 2038.8 |  | 
NRIGN-FTASG |  |  | 7815.03 | 0
GSGMA-LTHIT | 84.609 | 84.609 |  | 
RTPLM-LTASG |  |  | 12792.1 | 12792.1
SGVHR-LSYTA | 0 | 0 |  | 

Substance | Kobs (MMP-2; [1]) [M⁻¹ s⁻¹] | Kobs (MMP-9; [2]) [M⁻¹ s⁻¹] | Kobs (MMP-2; [3]) [M⁻¹ s⁻¹] | Kobs (MMP-9; [4]) [M⁻¹ s⁻¹]
ISPAT-LTASG |  |  | 12792.1 | 12792.1
KAALP-LTASG |  |  | 2916.17 | 3964.21
IQLAW-LTASG |  |  | 12792.1 | 5090.5
RRPLR-ITASG | 3165.09 | 12792.1 |  | 
GRAWM-MVTAS | 0 | 27.918 |  | 
GSGFA-LVAKT | 0 | 323.705 |  | 
SGPMS-LLDTA | 2996.69 | 8941.32 |  | 
GFAIS-MVTAS |  |  | 113.394 | 84.609
GRASA-LNTAS |  |  | 517.582 | 0
VTVIA-LTASG |  |  | 1711.63 | 951.362
SLYRA-LTASG |  |  | 7386.83 | 5667.28
LQPLT-ITASG |  |  | 5090.5 | 12792.1
GGSGR-LVLRV |  |  | 0 | 0
MVVRH-LTASG | 12792.1 | 12792.1 |  | 
GSGQG-LKVRT |  |  | 201.585 | 231.616
GGSGS-LSVWK | 0 | 0 |  | 
TAVRS-LTASG | 12792.1 | 5889.62 |  | 
APVYA-LTASG |  |  | 6131.32 | 12792.1
PSPRA-ITASG |  |  | 12792.1 | 12792.1
VRTMA-LTASG |  |  | 142.481 | 1030.73
YFARQ-LTASG |  |  | 2038.8 | 3438.54
EKVML-MTASG |  |  | 0 | 27.918
VFYQS-LTASG |  |  | 12792.1 | 0
RNVNF-LTASG | 2409.72 | 484.315 |  | 
GGSGQ-LLLRN |  |  | 0 | 0
TKVLW-LTASG |  |  | 4763.33 | 10866.7

Substance | Kobs (MMP-2; [1]) [M⁻¹ s⁻¹] | Kobs (MMP-9; [2]) [M⁻¹ s⁻¹] | Kobs (MMP-2; [3]) [M⁻¹ s⁻¹] | Kobs (MMP-9; [4]) [M⁻¹ s⁻¹]
YYASH-LTASG | 7015.91 | 1373.05 |  | 
VTPLY-LTASG |  |  | 12792.1 | 12792.1
STVRN-LTASG |  |  | 12792.1 | 4470.66
RVLSR-LTASG |  |  | 8941.32 | 0
AIYRS-MTASG |  |  | 3344.37 | 2916.17
KAPLK-LTASG | 12792.1 | 12792.1 |  | 
GWMHE-LKTAS |  |  | 0 | 0
SGPHS-MKLTA |  |  | 0 | 323.705
GFAKH-LLTAS | 56.119 | 201.585 |  | 
VHAVW-LTASG |  |  | 12792.1 | 12792.1
YAPGS-MTASG |  |  | 5269.78 | 3741.87
RVIRH-LTASG |  |  | 12792.1 | 7815.03
GVPSW-LSTAS |  |  | 12792.1 | 12792.1
GSGLE-LRVNT |  |  | 0 | 231.616
VQLRS-LTASG |  |  | 12792.1 | 7015.91
VEAHA-LTASG | 7015.91 | 2837.92 |  | 
SGVNS-LFTTA | 323.705 | 0 |  | 
DRIRH-LTASG |  |  | 6688.74 | 3964.21
SGAFS-LMRTA |  |  | 323.705 | 451.441
SGWLN-LRSTA | 1154.21 | 726.013 |  | 
PVVWW-QTASG |  |  | 836.403 | 5461.43
TAPIN-LTASG |  |  | 12792.1 | 12792.1
GRLGC-LKTAS |  |  | 1112.44 | 113.394
GKASN-LYTAS |  |  | 3165.09 | 1030.73
